Columns and labels:
[1] = system: p63; experiment: Activation of the pool of epidermal stem cell in reconstructed human epidermal tissue (RHE), p63 immunohistochemistry; type: cell-based; conditions: p63 immunofluorescence, 10 μg/ml, 24 hours
Protocol: Therefore, an increase in the expression of p63 would mean a higher regenerative potential compared to basal conditions.
The SkinEthic human tissue models (RHE) are removed from the agarose-nutrient solution in the multiwell plate immediately after arrival and are placed in a 6-well plate in which each well has previously be filled with SkinEthic Growth Medium (EPISKIN). After overnight incubation at 37° C., 5% CO2, the medium is removed. Then, the tissue models are incubated with the candidate peptide at 10 μg/ml at 37° C. and 5% CO2 for 24 hours. The tissue models are embedded in Tissue Teck OCT compound (Aname™). […]
The expression of p63 is evaluated by immunohistochemistry with a specific primary antibody and a fluorescently labelled secondary antibody. […] At the end of the incubation, slides are washed with PBS and are incubated with Alexa Fluor® 488 Goat anti-rabbit IgG (H+L) secondary antibody (Invitrogen, green fluorescence emission dye) 1 hour at room temperature in a dark humidified chamber. […]
Microscopical observations are performed with a Zeiss fluorescence microscope and photographs of each condition are taken with the associated camera. From each fluorescence image of p63, values of the product of Mean Intensity and Area are quantified and normalized by control (basal condition, treated with SkinEthic Growth Medium). […]

[2] = system: Keratin 14; experiment: Keratin expression in reconstructed human epidermal tissue (RHE), immunohistochemistry (Keratin 14); type: cell-based; conditions: Keratin 14 immunofluorescence, 10 μg/ml, 48 hours
Excerpt: The human epidermis continuously renews itself by a process of proliferation and differentiation of keratinocytes. Basal epidermal stem cells proliferate and the differentiation process begins above the basal layer, whereby the differentiating keratinocytes slowly move outward from the basal membrane, migrate through the epidermis, and undergo terminal differentiation culminating in fully differentiated dead cells on the surface. The process is a dynamic flux so that surface cells are continuously sloughed and replaced by inner cells differentiating and moving outward. […] To study the ability of the peptides of the invention to recover the basal keratinocyte state, the expression of Keratins 10 and 14 is evaluated by immunohistochemistry in a three-dimensional culture system, Reconstructed Human Epidermal Tissue (RHE), that reproduces in vitro the histological organization of human epidermis in situ. […]
The expression of Keratins 10 and 14 is evaluated by immunohistochemistry with a specific primary antibody and a fluorescently labelled secondary antibody. […] At the end of the incubation, slides are washed with 0.2% solution of Tween 20 in PBS and are incubated with Alexa Fluor® 488 Goat anti-mouse IgG (H+L) secondary antibody (Invitrogen, green fluorescence emission dye) for 1 hour at room temperature in a dark humidified chamber. […]

## Ac-QEMRMQ-OH [DD14024, Ac-Gln-Glu-Met-Arg-Met-Gln-OH]
[1]; 1 experiment
  Fold induction respect to basal conditions: 1.63 ± 0.16
[1]; mean of four experiments
  Fold induction respect to basal conditions: 2.11 ± 0.23
[2]
  Fold induction respect to basal conditions (%): 425.83%
